Measured values taken from patent US20220117266A1, “NICKEL CHELATION THERAPY” (priority 2019, published 2022).

How the values were obtained:
[1] = system: S. Typhimurium strain 14028; test: Typhoid fever-mouse model (survival, organ burden); assay type: in vivo, BALB/c mice
Procedure: The bacterial burden in livers and spleens was determined three days after infection (FIG. 5).
Mouse experiments—Infection Experiments. […] Female BALB/c mice (Charles River, Boston, Mass.) were orally inoculated individually with the S. Typhimurium strain ATCC 14028, following previously described methods (Maier et al. 2004 Infect Immun 72:6294-6299; Maier et al. 2014 PLoS One 9:e110187; Lamichhane-Khadka R et al. 2015 Infect Immun 83:311-316). Briefly, S. Typhimurium cells grown overnight in LB were harvested, washed, and suspended in sterile PBS to a final OD of OD600 0.01 (approximately 10^7 CFU/mL) and 0.1-mL volumes (10^6 bacterial cells) were introduced orally into each mouse. […] The mice were observed twice daily, and morbidity was recorded. In addition, a fourth independent experiment was performed to determine organ (liver and spleen) bacterial burdens. In this experiment, two groups of eight mice each were inoculated with S. Typhimurium 14028. […] Infection with S.T. 14028 was done as described above. Mice were euthanized 72 hours after infection. Livers and spleens were removed and homogenized in sterile PBS. Dilutions of the homogenate were plated on bismuth sulfite agar plates (BD DIFCO, Becton Dickinson, Franklin Lakes, N.J.), a selective medium for Salmonella species. Colony forming units (CFU) were counted after overnight incubation of the plates at 37° C.

C. jejuni 81-176 = test: Growth inhibition, liquid 96-well checkerboard (OD600, MIC, MBC); assay type: cell-based, Campylobacter jejuni; settings: 24 h
Procedure: Growth inhibition assays: liquid (96-well) plates experiments. This type of experiment can only be conducted with C. jejuni since the gas requirement for C. concisus (H2-enriched microaerobic) is not compatible with the use of 96-well plates. C. jejuni cells were grown as described above, harvested, and resuspended in sterile NaCl (8 g/L) to an OD600 of 0.1, corresponding approximately to 5×10^8 to 1×10^9 cells/mL. […] Wells were serially (2-fold) diluted in each direction (horizontal and vertical) to introduce all combinations. Wells with no DMG or metal compounds served as (positive) growth controls, and wells with no bacteria served as background (negative growth) controls. A typical protocol and loading plan are described in Table 7. The starting inoculum was at OD600 of 0.05, which corresponds approximately to 2.5×10^8 cells/mL to 5×10^8 cells/mL. After 24 hours incubation under microaerobic conditions at 37° C., OD600 was recorded using a 96 well-plate reader (Microtek). […] Resulting growth (or lack of growth) was examined after overnight culturing; the lowest concentration that inhibits 99.9% of the original culture was defined as MBC. MIC and MBC were determined based on tests (plates) done in triplicate.

[2] = system: S. Typhimurium ATCC 700408; test: Biofilm inhibition assay (crystal violet); assay type: cell-based, Salmonella enterica serovar Typhimurium; settings: 18 hours with DMG
Procedure: Biofilm inhibition assay. S. Typhimurium and K. pneumoniae cultures were adjusted to an optical density (OD600) of 0.1 in fresh LB broth. H. pylori culture was adjusted to an OD600 of 0.15 in brain heart infusion (BHI) supplemented with 0.4% β-cyclodextran. […] Plates containing S. Typhimurium and K. pneumoniae were incubated at 37° C. aerobically without shaking for 18 hours. Plates containing H. pylori were incubated at 37° C. microaerobically without shaking for 48 hours. After incubation with (Na2DMG) a crystal violet biofilm assay was performed as previously described with modifications (Kwasny et al. 2010. Current Protocols in Pharmacology 50:13A. 8.1-13A. 8.23). Briefly, supernatant was removed from the wells. Next, adherent cells were gently washed with phosphate-buffered saline (PBS) and allowed to air dry for 15 minutes. Cells were then heat fixed for one hour at 60° C. before staining with 0.5% crystal violet for 5 minutes. After the crystal violet was thoroughly washed from the wells with distilled deionized water, cells were air dried for 15 minutes. Acetic acid (33%) was then added to the wells to solubilize the crystal violet. The crystal violet-acetic acid solution was transferred to a clean 96 well plate and the OD600 was measured.

[3] = oral 3 mg DMG daily, three-day treatment
[4] = oral DMG 3 mg at 24 h and 30 min before and 24 h post infection, burden three days after infection, n=8

CC(=NO)C(C)=NO [DMG, dimethylglyoxime]
mortality [1, 3]: 100%
postponement of time of death [1, 3]: two
mouse survival ([1]; oral 3 mg DMG six hours post-infection then daily for nine days, n=4): 50%
mouse survival ([1]; oral 3 mg DMG six hours post-infection then daily for seven days, n=8): 37.5%
bacterial colonization of livers vs non-DMG treated group [1, 4]: Significantly lower
bacterial colonization of spleens vs non-DMG treated group [1, 4]: Significantly lower
OD600 (C. jejuni 81-176; DMG 0.062 mM + CuSO4 0 uM): 0.31
OD600 (C. jejuni 81-176; DMG 0.062 mM + CuSO4 2 uM): 0.37
OD600 (C. jejuni 81-176; DMG 0.062 mM + CuSO4 4 uM): 0.31
OD600 (C. jejuni 81-176; DMG 0.062 mM + CuSO4 8 uM): 0.33
OD600 (C. jejuni 81-176; DMG 0.062 mM + CuSO4 16 uM): 0.34
OD600 (C. jejuni 81-176; DMG 0.062 mM + CuSO4 32 uM): 0.24
OD600 (C. jejuni 81-176; DMG 0.062 mM + CuSO4 64 uM): 0.22
OD600 (C. jejuni 81-176; DMG 0.062 mM + CuSO4 128 uM): 0.24
OD600 (C. jejuni 81-176; DMG 0.062 mM + CuSO4 256 uM): 0.35
OD600 (C. jejuni 81-176; DMG 0.062 mM + CuSO4 512 uM): 0.34
OD600 (C. jejuni 81-176; DMG 0.062 mM + CuSO4 1024 uM): 0.47
OD600 (C. jejuni 81-176; DMG 0.125 mM + CuSO4 0 uM): 0.25
OD600 (C. jejuni 81-176; DMG 0.125 mM + CuSO4 2 uM): 0.31
OD600 (C. jejuni 81-176; DMG 0.125 mM + CuSO4 4 uM): 0.27
OD600 (C. jejuni 81-176; DMG 0.125 mM + CuSO4 8 uM): 0.31
OD600 (C. jejuni 81-176; DMG 0.125 mM + CuSO4 16 uM): 0.33
OD600 (C. jejuni 81-176; DMG 0.125 mM + CuSO4 32 uM): 0.26
OD600 (C. jejuni 81-176; DMG 0.125 mM + CuSO4 64 uM): 0.23
OD600 (C. jejuni 81-176; DMG 0.125 mM + CuSO4 128 uM): 0.24
OD600 (C. jejuni 81-176; DMG 0.125 mM + CuSO4 256 uM): 0.27
OD600 (C. jejuni 81-176; DMG 0.125 mM + CuSO4 512 uM): 0.34
OD600 (C. jejuni 81-176; DMG 0.125 mM + CuSO4 1024 uM): 0.47
OD600 (C. jejuni 81-176; DMG 0.25 mM + CuSO4 0 uM): 0.26
OD600 (C. jejuni 81-176; DMG 0.25 mM + CuSO4 2 uM): 0.31
OD600 (C. jejuni 81-176; DMG 0.25 mM + CuSO4 4 uM): 0.24
OD600 (C. jejuni 81-176; DMG 0.25 mM + CuSO4 8 uM): 0.37
OD600 (C. jejuni 81-176; DMG 0.25 mM + CuSO4 16 uM): 0.33
OD600 (C. jejuni 81-176; DMG 0.25 mM + CuSO4 32 uM): 0.25
OD600 (C. jejuni 81-176; DMG 0.25 mM + CuSO4 64 uM): 0.22
OD600 (C. jejuni 81-176; DMG 0.25 mM + CuSO4 128 uM): 0.24
OD600 (C. jejuni 81-176; DMG 0.25 mM + CuSO4 256 uM): 0.24
OD600 (C. jejuni 81-176; DMG 0.25 mM + CuSO4 512 uM): 0.27
OD600 (C. jejuni 81-176; DMG 0.25 mM + CuSO4 1024 uM): 0.30
OD600 (C. jejuni 81-176; DMG 0.5 mM + CuSO4 0 uM): 0.22
OD600 (C. jejuni 81-176; DMG 0.5 mM + CuSO4 2 uM): 0.31
OD600 (C. jejuni 81-176; DMG 0.5 mM + CuSO4 4 uM): 0.25
OD600 (C. jejuni 81-176; DMG 0.5 mM + CuSO4 8 uM): 0.23
OD600 (C. jejuni 81-176; DMG 0.5 mM + CuSO4 16 uM): 0.34
OD600 (C. jejuni 81-176; DMG 0.5 mM + CuSO4 32 uM): 0.21
OD600 (C. jejuni 81-176; DMG 0.5 mM + CuSO4 64 uM): 0.19
OD600 (C. jejuni 81-176; DMG 0.5 mM + CuSO4 128 uM): 0.20
OD600 (C. jejuni 81-176; DMG 0.5 mM + CuSO4 256 uM): 0.29
OD600 (C. jejuni 81-176; DMG 0.5 mM + CuSO4 512 uM): 0.14
OD600 (C. jejuni 81-176; DMG 0.5 mM + CuSO4 1024 uM): 0.09
OD600 (C. jejuni 81-176; DMG 1 mM + CuSO4 0 uM): 0.20
OD600 (C. jejuni 81-176; DMG 1 mM + CuSO4 2 uM): 0.27
OD600 (C. jejuni 81-176; DMG 1 mM + CuSO4 4 uM): 0.23
OD600 (C. jejuni 81-176; DMG 1 mM + CuSO4 8 uM): 0.21
OD600 (C. jejuni 81-176; DMG 1 mM + CuSO4 16 uM): 0.37
OD600 (C. jejuni 81-176; DMG 1 mM + CuSO4 32 uM): 0.24
OD600 (C. jejuni 81-176; DMG 1 mM + CuSO4 64 uM): 0.19
OD600 (C. jejuni 81-176; DMG 1 mM + CuSO4 128 uM): 0.10
OD600 (C. jejuni 81-176; DMG 1 mM + CuSO4 256 uM): 0.02
OD600 (C. jejuni 81-176; DMG 1 mM + CuSO4 512 uM): 0.02
OD600 (C. jejuni 81-176; DMG 1 mM + CuSO4 1024 uM): 0.04
OD600 (C. jejuni 81-176; DMG 2 mM + CuSO4 0 uM): 0.24
OD600 (C. jejuni 81-176; DMG 2 mM + CuSO4 2 uM): 0.34
OD600 (C. jejuni 81-176; DMG 2 mM + CuSO4 4 uM): 0.25
OD600 (C. jejuni 81-176; DMG 2 mM + CuSO4 8 uM): 0.26
OD600 (C. jejuni 81-176; DMG 2 mM + CuSO4 16 uM): 0.24
OD600 (C. jejuni 81-176; DMG 2 mM + CuSO4 32 uM): 0.17
OD600 (C. jejuni 81-176; DMG 2 mM + CuSO4 64 uM): 0.01
OD600 (C. jejuni 81-176; DMG 2 mM + CuSO4 128 uM): 0.01
OD600 (C. jejuni 81-176; DMG 2 mM + CuSO4 256 uM): 0.01
OD600 (C. jejuni 81-176; DMG 2 mM + CuSO4 512 uM): 0.02
OD600 (C. jejuni 81-176; DMG 2 mM + CuSO4 1024 uM): 0.04
OD600 (C. jejuni 81-176; DMG 4 mM + CuSO4 0 uM): 0.19
OD600 (C. jejuni 81-176; DMG 4 mM + CuSO4 2 uM): 0.26
OD600 (C. jejuni 81-176; DMG 4 mM + CuSO4 4 uM): 0.15
OD600 (C. jejuni 81-176; DMG 4 mM + CuSO4 8 uM): 0.04
OD600 (C. jejuni 81-176; DMG 4 mM + CuSO4 16 uM): 0.00
OD600 (C. jejuni 81-176; DMG 4 mM + CuSO4 32 uM): 0.00
OD600 (C. jejuni 81-176; DMG 4 mM + CuSO4 64 uM): 0.01
OD600 (C. jejuni 81-176; DMG 4 mM + CuSO4 128 uM): 0.01
OD600 (C. jejuni 81-176; DMG 4 mM + CuSO4 256 uM): 0.02
OD600 (C. jejuni 81-176; DMG 4 mM + CuSO4 512 uM): 0.02
OD600 (C. jejuni 81-176; DMG 4 mM + CuSO4 1024 uM): 0.04
biofilm formation [2]: able to inhibit biofilm formation
